Laboratory results reported in ChEMBL document CHEMBL3217454, “Structureactivity relationship studies using peptide arrays: the example of HIV-1 Revintegrase interaction” (Medchemcomm, 2013).
Peptide text beside a SMILES is read from it.

Assays:
[1] = molecular target: Human immunodeficiency virus type 1 integrase (Human immunodeficiency virus 1) (UniProt Q7ZJM1); assay: Binding affinity to HIV-1 integrase measured after overnight incubation by chemiluminescence analysis relative to IN 174-188; parameters: concentration or dose not given beside the values
Human immunodeficiency virus type 1 integrase (Human immunodeficiency virus 1), sequence (Q7ZJM1 as listed by the source): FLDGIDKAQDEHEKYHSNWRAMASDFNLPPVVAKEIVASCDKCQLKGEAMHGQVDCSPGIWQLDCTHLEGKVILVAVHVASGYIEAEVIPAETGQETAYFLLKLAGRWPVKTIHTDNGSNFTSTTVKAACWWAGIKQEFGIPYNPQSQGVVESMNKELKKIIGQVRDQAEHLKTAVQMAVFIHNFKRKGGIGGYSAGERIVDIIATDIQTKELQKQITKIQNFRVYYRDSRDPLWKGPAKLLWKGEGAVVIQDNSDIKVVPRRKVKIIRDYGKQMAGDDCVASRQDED

[2] = test system: Human immunodeficiency virus 1; assay: Binding affinity to HLT-tagged HIV-1 Rev measured after overnight incubation by chemiluminescence analysis relative to IN 174-188; parameters: concentration or dose not given beside the values

Compound | Activity [1] | Activity [2]
CC[C@H](C)[C@@H](NC(=O)[C@H](Cc1ccccc1)NC(=O)[C@@H](NC(=O)[C@H](C)NC(=O)[C@H](CCSC)NC(=O)[C@H](CCC(N)=O)NC(=O)[C@@H](NC(=O)[C@H](C)NC(=O)[C@@H](N)[C@@H](C)O)C(C)C)C(C)C)C(=O)N[C@@H](Cc1cnc[nH]1)C(=O)N[C@@H](CC(N)=O)C(=O)N[C@@H](Cc1ccccc1)C(=O)N[C@@H](CCCCN)C(=O)N[C@@H](CCCNC(=N)N)C(=O)N[C@@H](CCCCN)C(=O)O | 99% | 108%
CC[C@H](C)[C@H](NC(=O)[C@@H](Cc1ccccc1)NC(=O)[C@@H](NC(=O)[C@H](C)NC(=O)[C@H](CCSC)NC(=O)[C@H](CCC(N)=O)NC(=O)[C@@H](NC(=O)[C@H](C)NC(=O)[C@@H](N)[C@@H](C)O)C(C)C)C(C)C)C(=O)N[C@@H](Cc1cnc[nH]1)C(=O)N[C@@H](CC(N)=O)C(=O)N[C@@H](Cc1ccccc1)C(=O)N[C@@H](CCCCN)C(=O)N[C@@H](CCCNC(=N)N)C(=O)N[C@@H](CCCCN)C(=O)O | 120% | 231%
CC[C@H](C)[C@H](NC(=O)[C@H](Cc1ccccc1)NC(=O)[C@@H](NC(=O)[C@@H](C)NC(=O)[C@H](CCSC)NC(=O)[C@H](CCC(N)=O)NC(=O)[C@@H](NC(=O)[C@H](C)NC(=O)[C@@H](N)[C@@H](C)O)C(C)C)C(C)C)C(=O)N[C@@H](Cc1cnc[nH]1)C(=O)N[C@@H](CC(N)=O)C(=O)N[C@@H](Cc1ccccc1)C(=O)N[C@@H](CCCCN)C(=O)N[C@@H](CCCNC(=N)N)C(=O)N[C@@H](CCCCN)C(=O)O | 142% | 194%
CC[C@H](C)[C@H](NC(=O)[C@H](Cc1ccccc1)NC(=O)[C@@H](NC(=O)[C@H](C)NC(=O)[C@@H](CCSC)NC(=O)[C@H](CCC(N)=O)NC(=O)[C@@H](NC(=O)[C@H](C)NC(=O)[C@@H](N)[C@@H](C)O)C(C)C)C(C)C)C(=O)N[C@@H](Cc1cnc[nH]1)C(=O)N[C@@H](CC(N)=O)C(=O)N[C@@H](Cc1ccccc1)C(=O)N[C@@H](CCCCN)C(=O)N[C@@H](CCCNC(=N)N)C(=O)N[C@@H](CCCCN)C(=O)O | 127% | 196%
CC[C@H](C)[C@H](NC(=O)[C@H](Cc1ccccc1)NC(=O)[C@@H](NC(=O)[C@H](C)NC(=O)[C@H](CCSC)NC(=O)[C@@H](CCC(N)=O)NC(=O)[C@@H](NC(=O)[C@H](C)NC(=O)[C@@H](N)[C@@H](C)O)C(C)C)C(C)C)C(=O)N[C@@H](Cc1cnc[nH]1)C(=O)N[C@@H](CC(N)=O)C(=O)N[C@@H](Cc1ccccc1)C(=O)N[C@@H](CCCCN)C(=O)N[C@@H](CCCNC(=N)N)C(=O)N[C@@H](CCCCN)C(=O)O | 154% | 173%
CC[C@H](C)[C@H](NC(=O)[C@H](Cc1ccccc1)NC(=O)[C@@H](NC(=O)[C@H](C)NC(=O)[C@H](CCSC)NC(=O)[C@H](CCC(N)=O)NC(=O)[C@@H](NC(=O)[C@@H](C)NC(=O)[C@@H](N)[C@@H](C)O)C(C)C)C(C)C)C(=O)N[C@@H](Cc1cnc[nH]1)C(=O)N[C@@H](CC(N)=O)C(=O)N[C@@H](Cc1ccccc1)C(=O)N[C@@H](CCCCN)C(=O)N[C@@H](CCCNC(=N)N)C(=O)N[C@@H](CCCCN)C(=O)O | 105% | 209%
CC[C@H](C)[C@H](NC(=O)[C@H](Cc1ccccc1)NC(=O)[C@@H](NC(=O)[C@H](C)NC(=O)[C@H](CCSC)NC(=O)[C@H](CCC(N)=O)NC(=O)[C@@H](NC(=O)[C@H](C)NC(=O)[C@@H](N)[C@@H](C)O)C(C)C)C(C)C)C(=O)N[C@@H](Cc1cnc[nH]1)C(=O)N[C@@H](CC(N)=O)C(=O)N[C@@H](Cc1ccccc1)C(=O)N[C@@H](CCCCN)C(=O)N[C@@H](CCCNC(=N)N)C(=O)N[C@H](CCCCN)C(=O)O | 86% | 110%
CC[C@H](C)[C@H](NC(=O)[C@H](Cc1ccccc1)NC(=O)[C@@H](NC(=O)[C@H](C)NC(=O)[C@H](CCSC)NC(=O)[C@H](CCC(N)=O)NC(=O)[C@@H](NC(=O)[C@H](C)NC(=O)[C@@H](N)[C@@H](C)O)C(C)C)C(C)C)C(=O)N[C@@H](Cc1cnc[nH]1)C(=O)N[C@@H](CC(N)=O)C(=O)N[C@@H](Cc1ccccc1)C(=O)N[C@@H](CCCCN)C(=O)N[C@H](CCCNC(=N)N)C(=O)N[C@@H](CCCCN)C(=O)O | 93% | 169%
CC[C@H](C)[C@H](NC(=O)[C@H](Cc1ccccc1)NC(=O)[C@@H](NC(=O)[C@H](C)NC(=O)[C@H](CCSC)NC(=O)[C@H](CCC(N)=O)NC(=O)[C@@H](NC(=O)[C@H](C)NC(=O)[C@@H](N)[C@@H](C)O)C(C)C)C(C)C)C(=O)N[C@@H](Cc1cnc[nH]1)C(=O)N[C@@H](CC(N)=O)C(=O)N[C@@H](Cc1ccccc1)C(=O)N[C@H](CCCCN)C(=O)N[C@@H](CCCNC(=N)N)C(=O)N[C@@H](CCCCN)C(=O)O | 110% | 120%
CC[C@H](C)[C@H](NC(=O)[C@H](Cc1ccccc1)NC(=O)[C@@H](NC(=O)[C@H](C)NC(=O)[C@H](CCSC)NC(=O)[C@H](CCC(N)=O)NC(=O)[C@@H](NC(=O)[C@H](C)NC(=O)[C@@H](N)[C@@H](C)O)C(C)C)C(C)C)C(=O)N[C@@H](Cc1cnc[nH]1)C(=O)N[C@@H](CC(N)=O)C(=O)N[C@H](Cc1ccccc1)C(=O)N[C@@H](CCCCN)C(=O)N[C@@H](CCCNC(=N)N)C(=O)N[C@@H](CCCCN)C(=O)O | 112% | 156%
CC[C@H](C)[C@H](NC(=O)[C@H](Cc1ccccc1)NC(=O)[C@@H](NC(=O)[C@H](C)NC(=O)[C@H](CCSC)NC(=O)[C@H](CCC(N)=O)NC(=O)[C@@H](NC(=O)[C@H](C)NC(=O)[C@@H](N)[C@@H](C)O)C(C)C)C(C)C)C(=O)N[C@@H](Cc1cnc[nH]1)C(=O)N[C@H](CC(N)=O)C(=O)N[C@@H](Cc1ccccc1)C(=O)N[C@@H](CCCCN)C(=O)N[C@@H](CCCNC(=N)N)C(=O)N[C@@H](CCCCN)C(=O)O | 116% | 92%
CC[C@H](C)[C@H](NC(=O)[C@H](Cc1ccccc1)NC(=O)[C@@H](NC(=O)[C@H](C)NC(=O)[C@H](CCSC)NC(=O)[C@H](CCC(N)=O)NC(=O)[C@@H](NC(=O)[C@H](C)NC(=O)[C@@H](N)[C@@H](C)O)C(C)C)C(C)C)C(=O)N[C@H](Cc1cnc[nH]1)C(=O)N[C@@H](CC(N)=O)C(=O)N[C@@H](Cc1ccccc1)C(=O)N[C@@H](CCCCN)C(=O)N[C@@H](CCCNC(=N)N)C(=O)N[C@@H](CCCCN)C(=O)O | 105% | 105%
CC[C@H](C)[C@H](NC(=O)[C@H](Cc1ccccc1)NC(=O)[C@@H](NC(=O)[C@H](C)NC(=O)[C@H](CCSC)NC(=O)[C@H](CCC(N)=O)NC(=O)[C@@H](NC(=O)[C@H](C)NC(=O)[C@H](N)[C@@H](C)O)C(C)C)C(C)C)C(=O)N[C@@H](Cc1cnc[nH]1)C(=O)N[C@@H](CC(N)=O)C(=O)N[C@@H](Cc1ccccc1)C(=O)N[C@@H](CCCCN)C(=O)N[C@@H](CCCNC(=N)N)C(=O)N[C@@H](CCCCN)C(=O)O | 73% | 141%
CC[C@H](C)[C@H](NC(=O)[C@H](Cc1ccccc1)NC(=O)[C@@H](NC(=O)[C@H](C)NC(=O)[C@H](CCSC)NC(=O)[C@H](CCC(N)=O)NC(=O)[C@H](NC(=O)[C@H](C)NC(=O)[C@@H](N)[C@@H](C)O)C(C)C)C(C)C)C(=O)N[C@@H](Cc1cnc[nH]1)C(=O)N[C@@H](CC(N)=O)C(=O)N[C@@H](Cc1ccccc1)C(=O)N[C@@H](CCCCN)C(=O)N[C@@H](CCCNC(=N)N)C(=O)N[C@@H](CCCCN)C(=O)O | 115% | 226%
CC[C@H](C)[C@H](NC(=O)[C@H](Cc1ccccc1)NC(=O)[C@H](NC(=O)[C@H](C)NC(=O)[C@H](CCSC)NC(=O)[C@H](CCC(N)=O)NC(=O)[C@@H](NC(=O)[C@H](C)NC(=O)[C@@H](N)[C@@H](C)O)C(C)C)C(C)C)C(=O)N[C@@H](Cc1cnc[nH]1)C(=O)N[C@@H](CC(N)=O)C(=O)N[C@@H](Cc1ccccc1)C(=O)N[C@@H](CCCCN)C(=O)N[C@@H](CCCNC(=N)N)C(=O)N[C@@H](CCCCN)C(=O)O | 108% | 152%
CC[C@H](C)[C@H](NC(=O)[C@H](Cc1ccccc1)NC(=O)[C@@H](NC(=O)[C@H](C)NC(=O)[C@H](CCSC)NC(=O)[C@H](CCC(N)=O)NC(=O)[C@@H](NC(=O)[C@H](C)NC(=O)[C@H](C)N)C(C)C)C(C)C)C(=O)N[C@@H](Cc1cnc[nH]1)C(=O)N[C@@H](CC(N)=O)C(=O)N[C@@H](Cc1ccccc1)C(=O)N[C@@H](CCCCN)C(=O)N[C@@H](CCCNC(=N)N)C(=O)N[C@@H](CCCCN)C(=O)O (H-AAVQMAVFIHNFKRK-OH) | 83% | 80%
CC[C@H](C)[C@H](NC(=O)[C@H](Cc1ccccc1)NC(=O)[C@@H](NC(=O)[C@H](C)N)C(C)C)C(=O)N[C@@H](Cc1cnc[nH]1)C(=O)N[C@@H](CC(N)=O)C(=O)N[C@@H](Cc1ccccc1)C(=O)N[C@@H](CCCCN)C(=O)N[C@@H](CCCNC(=N)N)C(=O)N[C@@H](CCCCN)C(=O)O (H-AVFIHNFKRK-OH) | 120% | 111%
CC[C@H](C)[C@H](NC(=O)[C@H](Cc1ccccc1)NC(=O)[C@@H](NC(=O)[C@H](C)NC(=O)[C@H](CCSC)NC(=O)[C@H](CCC(N)=O)NC(=O)[C@@H](NC(=O)[C@H](C)N)C(C)C)C(C)C)C(=O)N[C@@H](Cc1cnc[nH]1)C(=O)N[C@@H](CC(N)=O)C(=O)N[C@@H](Cc1ccccc1)C(=O)N[C@@H](CCCCN)C(=O)N[C@@H](CCCNC(=N)N)C(=O)N[C@@H](CCCCN)C(=O)O (H-AVQMAVFIHNFKRK-OH) | 99% | 141%
CC[C@H](C)[C@H](NC(=O)[C@@H](N)Cc1ccccc1)C(=O)N[C@@H](Cc1cnc[nH]1)C(=O)N[C@@H](CC(N)=O)C(=O)N[C@@H](Cc1ccccc1)C(=O)N[C@@H](CCCCN)C(=O)N[C@@H](CCCNC(=N)N)C(=O)N[C@@H](CCCCN)C(=O)O (H-FIHNFKRK-OH) | 133% | 69%
CC[C@H](C)[C@H](NC(=O)[C@H](Cc1ccccc1)NC(=O)[C@@H](NC(=O)[C@H](C)NC(=O)[C@@H](N)CCSC)C(C)C)C(=O)N[C@@H](Cc1cnc[nH]1)C(=O)N[C@@H](CC(N)=O)C(=O)N[C@@H](Cc1ccccc1)C(=O)N[C@@H](CCCCN)C(=O)N[C@@H](CCCNC(=N)N)C(=O)N[C@@H](CCCCN)C(=O)O (H-MAVFIHNFKRK-OH) | 106% | 88%
